In ChEMBL document CHEMBL1275243 (2010):
Converted amounts (≈) assume the structure as drawn. The source made the active and inactive calls. The calls are words filed in the database; no cut-off is given here.

Legend:
Bacillus anthracis [1] = test: Antimicrobial activity against Bacillus anthracis Sterne 411A2 harboring GyrA Ser85Leu and parC Ser81Phe mutant gene by broth microdilution method; assay type: functional, Bacillus anthracis str. Sterne
Bacillus anthracis [2] = test: Antimicrobial activity against Bacillus anthracis Sterne 402 harboring gyrA Ser85Leu mutant gene by broth microdilution method; assay type: functional, Bacillus anthracis str. Sterne
Bacillus anthracis [3] = test: Antimicrobial activity against Bacillus anthracis A0465 by broth microdilution method; assay type: functional
Bacillus anthracis [4] = test: Antimicrobial activity against Bacillus anthracis A0248 by broth microdilution method; assay type: functional
Bacillus anthracis [5] = test: Antimicrobial activity against Bacillus anthracis A0462 by broth microdilution method; assay type: functional
Bacillus anthracis [6] = test: Antimicrobial activity against Bacillus anthracis A03768 by broth microdilution method; assay type: functional
Bacillus anthracis [7] = test: Antimicrobial activity against Bacillus anthracis A0193 by broth microdilution method; assay type: functional
Bacillus anthracis [8] = test: Antimicrobial activity against Bacillus anthracis Sterne 411A2 assessed as growth inhibition at 16 ug/ml after 4 hrs relative to control; assay type: functional, organism-based; settings: Bacillus anthracis str. Sterne
Bacillus anthracis [9] = test: Antimicrobial activity against tetracycline-nonsusceptible Bacillus anthracis Sterne S1028 by broth microdilution method; assay type: functional, Bacillus anthracis str. Sterne
Bacillus anthracis [10] = test: Antimicrobial activity against Bacillus anthracis 240 by broth microdilution method; assay type: functional
Bacillus anthracis [11] = test: Antimicrobial activity against Bacillus anthracis A0102 by broth microdilution method; assay type: functional
Bacillus anthracis [12] = test: Antimicrobial activity against Bacillus anthracis A0488 by broth microdilution method; assay type: functional
Bacillus anthracis [13] = test: Antimicrobial activity against Bacillus anthracis A0188 by broth microdilution method; assay type: functional
Bacillus anthracis [14] = test: Antimicrobial activity against Bacillus anthracis A0264 by broth microdilution method; assay type: functional
Bacillus anthracis [15] = test: Antimicrobial activity against Bacillus anthracis A0419 by broth microdilution method; assay type: functional
Bacillus anthracis [16] = test: Antimicrobial activity against Bacillus anthracis A0149 by broth microdilution method; assay type: functional
Bacillus anthracis [17] = test: Antimicrobial activity against Bacillus anthracis A0293 by broth microdilution method; assay type: functional
Bacillus anthracis [18] = test: Antimicrobial activity against pXO1-positive and pXO2 negative Bacillus anthracis 34F2 by broth microdilution method; assay type: functional

Structure (SMILES): O=C(O)c1cn(C2CC2)c2cc(N3CCNCC3)c(F)cc2c1=O [CIPROFLOXACIN]
- MIC (Bacillus anthracis [1]): >16 µg/mL
- MIC (Bacillus anthracis [2]): 1 µg/mL (≈ 3.02 µM)
- MIC (Bacillus anthracis [3]): 0.03 µg/mL (≈ 0.0905 µM)
- MIC (Bacillus anthracis [4]): 0.12 µg/mL (≈ 0.362 µM)
- MIC (Bacillus anthracis [5]): 0.12 µg/mL (≈ 0.362 µM)
- MIC (Bacillus anthracis [6]): 0.12 µg/mL (≈ 0.362 µM)
- MIC (Bacillus anthracis [7]): 0.015 µg/mL (≈ 0.0453 µM)
- inhibition (Bacillus anthracis [8]): inactive

Structure (SMILES): C[C@H]1c2cccc(O)c2C(=O)C2=C(O)[C@]3(O)C(=O)C(C(N)=O)=C(O)[C@@H](N(C)C)[C@@H]3[C@@H](O)[C@@H]21.O [DOXYCYCLINE]
- MIC (Bacillus anthracis [9]): 1 µg/mL
- MIC (Bacillus anthracis [1]): <=0.06 ug ml-1
- MIC (Bacillus anthracis [2]): <=0.06 ug ml-1
- MIC (Bacillus anthracis [10]): ≤ 0.06 µg/mL
- MIC (Bacillus anthracis [11]): ≤ 0.06 µg/mL
- MIC (Bacillus anthracis [12]): ≤ 0.06 µg/mL
- MIC (Bacillus anthracis [3]): ≤ 0.06 µg/mL
- MIC (Bacillus anthracis [4]): ≤ 0.06 µg/mL
- MIC (Bacillus anthracis [5]): ≤ 0.06 µg/mL
- MIC (Bacillus anthracis [6]): ≤ 0.06 µg/mL
- MIC (Bacillus anthracis [13]): ≤ 0.06 µg/mL
- MIC (Bacillus anthracis [14]): ≤ 0.06 µg/mL
- MIC (Bacillus anthracis [15]): ≤ 0.06 µg/mL
- MIC (Bacillus anthracis [16]): ≤ 0.06 µg/mL
- MIC (Bacillus anthracis [17]): ≤ 0.06 µg/mL
- MIC (Bacillus anthracis [7]): ≤ 0.06 µg/mL
- MIC (Bacillus anthracis [18]): ≤ 0.06 µg/mL
